Patent US20140322196A1 (priority 2011, published 2014)
Ends that are not written are not given here.

Legend:
[1] = Cytotoxicity assay; format: cell-based, canine; settings: dog, MDCK cells, read-out: CC50 (cytotoxic concentration 50%)
Method: To establish the maximal non-cytotoxic dose of bLf and its derivatives, two-fold serial dilutions of each substance in culture medium were incubated at 37° C. with confluent MDCK cells grown in 96-well tissue culture microplates (Nalge Europe Ltd, Neerijse, Belgium). After 24 h, the following parameters were evaluated: cell morphology and viability (determined by neutral red staining) were examined by light microscopy and cell proliferation was evaluated quantitatively by microscopic counts after dispersion into individual cells with trypsin.

[2] = system: A/Roma-ISS/2/08 H1N1; settings: read-out: EC50 (effective concentration 50%); A/Roma-ISS/2/08 H1N1, MDCK cells
[3] = system: A/Parma/24/09 H1N1; settings: read-out: EC50 (effective concentration 50%); A/Parma/24/09 H1N1, MDCK cells
[4] = system: A/Parma/05/06 H3N2; settings: read-out: EC50 (effective concentration 50%); A/Parma/05/06 H3N2, MDCK cells
[5] = Peptide stability; format: physicochemical

In the case of “SKHSSLDCVLRP [SEQ ID NO: 1, SKHSSLDCVLRP]”, the CC50 at 24 h [1] is reported as greater than 25000 nM, the EC50 [2] is reported as 0.004 nM and the EC50 [3] is reported as 0.0031 nM. The EC50 [4] was 0.0058 nM.
NGESSADWAKN [SEQ ID NO: 4, NGESSADWAKN] gave a CC50 at 24 h [1] greater than 25000 nM and an EC50 [4] of 0.0225 nM.
In the case of “NGESTADWAKN (bovine lactoferrin peptide from 553 aa to 563 aa) [SEQ ID NO: 3, bLf C-lobe peptide, residues 553-563]”, the “stability of the peptide (in words)” value [5] is reported as “poor stability”.
With “AGDDQGLDKCVPNSKEK [SEQ ID NO: 2, AGDDQGLDKCVPNSKEK]” the CC50 at 24 h [1] was greater than 25000 nM, the EC50 [2] was 0.0037 nM and the EC50 [3] was 0.0034 nM. For the same sequence, the EC50 [4] was 0.0073 nM.
